Series [1] is described as follows: Hardening activity of UP resin A under UV light, temperature/time curve (Table 2). To be noted: 0.2% compound. As for the experimental part: (§1) To measure the hardening activity, the temperature curve for the unsaturated polyester resin (UP resin) was recorded during exposure to UV light. […] To avoid heat losses during the exposure to UV light, the lid was embedded in rigid expanded polyurethane foam. The UV light source used comprised 5 fluorescent tubes (TLAK 40 W/05 from Philips) side by side, at a distance of 8.5 cm from the UP resin surface.
(§2) The hardening time HT25° C.-T.sbsb.max and the maximum hardening temperature Tmax achieved were obtained, as characteristic parameters for the hardening activity, from the recorded temperature/time curves. The hardening time is the interval in which the sample temperature increases from 25° C. to Tmax.
(§3) The Examples and Comparative Examples were carried out using the following unsaturated polyester resins:
Resin A was a 65% strength solution, in styrene, of an unsaturated polyester of maleic acid, o-phthalic acid, ethylene glycol and propylene 1,2-glycol in the molar ratio of 1:2:2.3:0.70, the solution being stabilized with 0.01% of hydroquinone.
(§4) The hardening activity of the novel compounds 1 to 16 (cf. Table 1) was compared with the properties of the following compounds: […]

The nature of series [2]: Hardening activity of UP resin B under UV light, temperature/time curve (Table 2). To be noted: 0.2% compound. As to the method:
as §1, §2, §3
Resin B was a 67% strength solution, in styrene, of an unsaturated polyester of maleic acid, tetrahydrophthalic acid and diethylene glycol in the molar ratio of 1:0.5:1.5, the solution being stabilized with 0.01% of hydroquinone.
as §4

Series [3] in a line: Hardening activity of UP resin C under UV light, temperature/time curve (Table 2). Particulars: 0.2% compound. As to the method: as §1, §2, §3
Resin C was a 66% strength solution, in styrene, of an unsaturated polyester of maleic acid, o-phthalic acid and propylene 1,2-glycol in the molar ratio of 1:0.5:1.5, the solution being stabilized with 0.01% of hydroquinone.
as §4

The nature of series [4]: Shelf life of UP resin A containing a photoinitiator, stored at 60° C. (Table 3). Type of series: physicochemical. Particulars: 0.2% initiator, dark. As for the experimental part:
(§5) To test the shelf life, 6.6 ml of each of the UP resins A, B and C (cf. Example 5) with an initiator content of 0.2% were introduced into brown sample bottles, and the closed bottles were stored at 60° C. At intervals of about 12 hours, the bottles were turned to determine whether gel particles had formed. As a measure of the shelf life, Table 3 gives the maximum storage time at which gel particles were still not observed.
(§6) In addition to the comparative compounds I, II and III, compound V below was also tested: V 2,4,6-trimethylbenzoyldiphenylphosphine oxide as described in U.S. Pat. No. 4,265,723.
(§7) The numbering scheme of the compounds in Table 3 is based on that of Table 1.

Series [5] can be described thus: Photopolymerization of monomer emulsion, properties of resulting polymer dispersions (Table 5). To be noted: for Fikentscher K value / Residual monomers, ethyl acrylate / Residual monomers, methyl acrylate / Solids content: 60 min exposure. As to the method: A monomer emulsion was prepared from 50 parts of methyl acrylate, 50 parts of ethyl acrylate, 1.3 parts of a 40% strength C15 -paraffin sulfonate, 1.3 parts of an adduct of isooctylphenol with 25 units of ethylene oxide (20% strength) and 210 parts of water in a conventional mixing unit.
This emulsion was introduced into a 1 l glass flask provided with an internal thermometer and a stirrer, and was freed from oxygen by twice evacuating the flask and gassing the emulsion with nitrogen. X parts of the photoinitiator in 6.7 parts of water were added, and the reaction vessel was then exposed for 60 minutes to light from a high pressure mercury vapor lamp of Type HQL/R 400 W from Osram, located 30 cm above the vessel. The beginning of polymerization was evident from an increase in the temperature. The amounts of photoinitiator employed and the properties of the resulting polymer dispersions are summerized in Table 5, photoinitiator 4 (cf. Table 1) being compared with photoinitiator VI (described in U.S. Pat. No. 4.257,859).

Series [6] is classed as physicochemical. To be noted: 80° C., closed ampoule. As to the method: 294 parts of partially hydrolyzed polyvinyl acetate (degree of hydrolysis 82 mole %, average degree of polymerization 500) were dissolved in 294 parts of demineralized water at 90° C. by stirring the mixture for several hours. The solution was cooled to 70° C., and therafter 20 parts of 1,1,1-trimethylolpropane triacrylate, 1,0 part of 2,6-di-tert.-butyl-p-cresol and the amount of photoinitiator given in table 6, dissolved in 230 parts of 2-hydroxyethyl methacrylate, were added, with stirring. The homogeneous viscous solution was filtered, and dehydrated and degassed under reduced pressure. A 550 μm thick, nontacky layer was obtained by applying the solution onto steel sheet provided with an adhesive, and drying the layer for 24 hours at room temperature. The printing plate was pre-exposed for 2 seconds and thereafter exposed inagewise, through a negative, to light from a commercial 5 kW exposure unit for the times given in table 6.
The thermal stability of the photosensitive solutions was determined by storing a sample in a closed ampoule at 80° C. In comparison with compound V, the novel photoinitiators improved the stability of the photosensitive mixture by a factor of 2 (see Table 6), with otherwise very similar behavior.

The nature of series [7]: Minimum exposure time for faultless reproduction of the 3% tonality on photopolymerizable printing plate (Table 7). Particulars: 2 parts photoinitiator; UV about 3,300 μW/cm^2. As to the method: 60 parts by weight of a 1:1:1 copolyamide consisting of PA-6, PA-6.6 and PA-6.13, 30 parts by weight of ethylene glycol bis-(N-methylolacrylamide) ether, 10 parts by weight of benzenesulfonic acid N-(n-butyl)-amide, 150 parts by weight of methanol, 20 parts by weight of water, 0.02 part by weight of a chromium complex dye (CI No. 12,195), 0.3 part by weight of potassium N-nitrosocyclohexylhydroxylamine and 2 parts by weight of the photoinitiator given in Table 7 were dissolved at about 70° C. The photopolymerizable material was brought to a solids content of about 65% by distilling off part of the solvent and was then cast, at 60° C., on to a strip of steel sheet provided with an adhesive, and drying was effected in a drying oven for about 2 hours at 80° C. The resulting photopolymerizable printing plate contained a 0.5 mm thick layer with a solids content of about 95%.
Using a test negative which had, inter alia, 54 screen lines, per centimeter, of 3% tonality, the plate was exposed to a UV light intensity of about 3,300 μW/cm^2 on a flat-plate exposure unit equipped with superactinic fluorescent tubes. The unexposed parts of the plate which were protected from the UV light by the opaque image elements of the negative were then washed out in a spray washer for 5 minutes at 30° C. and under a spray pressure of 5 bar, using an ethanol/water mixture containing 80% of ethanol. The plate was thereafter dried for 6 minutes at 110° C. The minimum exposure time required for faultless reproduction of the 3% tonality was measured, and the results for various photoinitiators are summarized in Table 7.

Series [8] in a line: Shelf life of resins containing the compounds, overall comparison. Type of series: physicochemical. Particulars: Table 3, in words. As to the method:
as §5, §6

Series [9] in a line: Hardening rate of UV-exposed finish by Konig pendulum method (DIN 53,157) (Table 4). Particulars: for Damping of pendulum: 2 parts photoinitiator. As for the experimental part: An unsaturated polyester was prepared by esterifying 143 parts of tetrahydrophthalic anhydride and 175 parts of maleic anhydride with 260 parts of diethylene glycol. 0.01% of hydroquinone was added, and thereafter a 64% strength solution of the polyester in styrene was prepared (solution D).
For the UV hardening experiments, 10 parts of styrene and 2 parts of the photoinitiator were added to 100 parts of solution D, and the finish was applied to photographic paper on a hardboard base by means of a film spreader (slotwidth 200 μm)
The film was dried in air for about 1 minute and then exposed to light from a 30 watt high pressure mercury vapor lamp of 1 cm arc length (Philips HTQ 7) located 15 cm above the object.
The hardening rate was determined by the Konig pendulum method (DIN 53,157), and is given in Table 4 together with the color measurements carried out on the hardened films.
The numbering scheme for the photoinitiators is based on that of Table 1 and Example 6.

Series [10] is described as follows: Shelf life of UP resin B containing a photoinitiator, stored at 60° C. (Table 3). Type of series: physicochemical. To be noted: 0.2% initiator, dark. As for the experimental part:
as §5, §6, §7

A short description of series [11]: Shelf life of UP resin C containing a photoinitiator, stored at 60° C. (Table 3). The class given is physicochemical. Particulars: 0.2% initiator, dark. As to the method: as §5, §6, §7
Series [12] in a line: Hardening activity in UP resins, overall comparison. As to the method:
as §1, §2, §3, §4

This is an account of results in patent publication US4719297A, “Acylphosphine compounds and their use as photoinitiators” (priority 1981, dated 1988).

Structures are written as SMILES. Read-outs that look alike come from different tables or passages of the source. A value given as a limit tells only on which side of the number the result lay.

For the compound `Cc1cc(C)c(C(=O)P(=O)([O-])c2ccccc2)c(C)c1.[Na+]` [Compound 4, Sodium 2,4,6-trimethylbenzoylphenylphosphinate], in series [1], the “hardening time HT 25°-Tmax” value is 5/53 and the “maximum hardening temperature Tmax” value worked out at 117 °C. In [2], the “hardening time HT 25°-Tmax” value is reported as 4/37 and the “maximum hardening temperature Tmax” value stood at 125 °C. In [3], the “hardening time HT 25°-Tmax” value is on record as 5/23 and the “maximum hardening temperature Tmax” value came to 122 °C. The Shelf life in series [4] was 190 h. Further, in series [5] (0.04 parts X employed), the “Fikentscher K value” is 156.8; the “Residual monomers, ethyl acrylate” value was 0.019%; the “Residual monomers, methyl acrylate” value came to 0.051%; the Solids content amounted to 31.3%. For the same compound, in [5] (1.7 parts X employed), the “Fikentscher K value” was 146.6; the “Residual monomers, ethyl acrylate” value is less than 0.005%; the “Residual monomers, methyl acrylate” value stood at 0.005%; the Solids content was determined as 31.4%. Moreover, the “activity compared with photoinitiator VI” value in series [5] (same K value of dispersions, in words) is listed as “higher activity”. Also, the “content of residual monomers compared with photoinitiator VI” value in series [5] (same starting concentration, in words) is “substantially lower content of residual monomers”. Moreover, the “initiation of photopolymerization at very low starting concentrations” value in series [5] (very low starting concentrations, in words) is recorded as “permits photopolymerization even at very low starting concentrations”. This compound displayed a Stability in series [6] (6 parts of compound) of 34 h. Besides, the “Minimum exposure time required for reproducing the 3% tonality” value in series [7] is 115 s. Also, in series [8], the “shelf life of resins compared with compounds II, III and V” value is “substantially superior”; the “shelf life of resins compared with resins containing I” value is reported as “not significantly different”.

Turning to `Cc1cc(C)c(C(=O)P(=O)(O)c2ccccc2)c(C)c1` [Compound 12, Methyldiethanolammonium 2,4,6-trimethylbenzoylphenylphosphinate], the “hardening time HT 25°-Tmax” value was 6/15 in series [1], 5/08 in [2] and 5/23 in series [3]. Further, the “maximum hardening temperature Tmax” value in series [1] came out at 116 °C; in series [2], 129 °C; in series [3], 123 °C. The “hardening activity compared with compound V” value in series [9] (Table 4, in words) is listed as “substantially more active hardener”. Further, the Damping of pendulum in series [9] (exposure time 5 s) is 71; in [9] (exposure time 10 s), 92; in series [9] (exposure time 15 s) it was 112; in [9] (exposure time 20 s), 122; in series [9] (exposure time 25 s), 130. In series [6] (7 parts of compound), this compound yielded a Stability of 28 h.

`COP(=O)(C(=O)c1c(C)cc(C)cc1C)c1ccccc1` (centres unmarked) [I, methyl 2,4,6-trimethybenzoylphenylphosphinate, reference compound]: the “hardening time HT 25°-Tmax” value was 7/45 in series [1], 5/23 in series [2] and 6/53 in series [3]. In addition, the “maximum hardening temperature Tmax” value in series [1] worked out at 114 °C; in series [2], 127 °C; in [3] it was 123 °C. Also, the values for the Shelf life in series [4], in series [10] and in series [11] were 180 h, 155 h and 180 h, respectively. Further, the “hardening activity compared with the novel compounds” value in series [12] (see Example 5, in words) is given as “substantially less active hardener”.

For the compound `COP(=O)([O-])C(C)=O.[Na+]` [IV, monosodium monomethylacetylphosphonate, reference compound], in series [1], the “hardening outcome (footnote to Tmax)” value is listed as “not hardened”, the “hardening time HT 25°-Tmax” value is 13/15 and the “maximum hardening temperature Tmax” value worked out at 30 °C. Also, the suitability for photohardening result in [12] (Table 2, in words) is “unsuitable for photohardening”.

For `Cc1cc(C)c(C(=O)P(=O)(c2ccccc2)c2ccccc2)c(C)c1` [V, 2,4,6-trimethylbenzoyldiphenylphosphine oxide, reference compound], the Shelf life in series [4] was 140 h; in series [10], 140 h; in series [11], 120 h. For the same compound, the Damping of pendulum in series [9] (exposure time 5 s) is on record as 43; in series [9] (exposure time 10 s) it was 66; in series [9] (exposure time 15 s) it was 84; in series [9] (exposure time 20 s) it was 102; in series [9] (exposure time 25 s), 112. The Stability in series [6] (4 parts of compound) is 15 h. Also, the “Minimum exposure time required for reproducing the 3% tonality” value in series [7] is 190 s.
